Source: patent EP4475229A1, “QUINONE-TYPE MOLECULES FOR ZINC-ION AQUEOUS BATTERIES” (Centre National de la Recherche Scientifique, priority 2023, dated 2024)
Values after ≈ are worked out from the molar mass of the structure shown. Read-outs that look alike come from different tables or passages of the source.

Assays:
[1] = cited from earlier work
[2] = Solubility of literature quinones in aqueous electrolytes, reported or estimated from references
Description: However, such value can be roughly estimated in the case of ref [4] by using equilibration tests reported in the figure 2e of this publication for PTO molecules.
In the table, (a) is for Estimated at mAM/Vel= 3/0.5 mg/ml and (b) vs. the maximum observed capacity (c) Estimated from Fig2e ref [4], that is 3.6% capacity loss upon 24h rest (OCV) in reduced state.

[3] = for saturation limit in comparison with compound 2 (2,5 DTBHQ) / saturation limit: 1 week at room temperature; for saturation limit: argon
[4] = physchem; settings: water
[5] = 1.25 M Zn(CH3COO)2, pH 4-5, 10080 min

SMILES: O=c1c(=O)c2cccc3c2-c2c1cccc2c(=O)c3=O [PTO]
- Solubility oxidized state ([1]; 2.5M Li2SO4, pH 7, ref [5]): Soluble (Fig. S21)
- Solubility oxidized state ([1]; 4.4M H2SO4, pH 0, ref [5]): 0.0047 (Fig. S18) mmol/L
- Solubility factor vs. 2,5 DTBHQ ([2]; 2M ZnSO4, pH 4-5, ref [4]): >11
- Solubility factor vs. 2,5 DTBHQ ([2]; 2.5M Li2SO4, pH 7, ref [5]): > 10000
- Solubility reduced state ([2]; 4.4M H2SO4, pH 0, ref [5], presumed): Presumed Not soluble
- maximum solubility relative to compound 2 (2,5 DTBHQ) ([2]; estimated from ref [4], reduced state): approx. 11 times

SMILES: CC(C)(C)c1cc(O)ccc1O [compound 8]
- Solubility reduced state [3, 5]: 20400 µM (≈ 3390 µg/mL)
- saturation limit in comparison with compound 2 (2,5 DTBHQ) ([3]; acetate electrolytes): ~100 times
- saturation limit ([3]; acetate electrolytes): 20.4 mM/L

SMILES: O=C1C(O)=C(O)C(=O)C(O)=C1O [THBQ]
- Solubility oxidized state ([1]; 1M ZnSO4, pH 4-5, ref [1]): 3.4 mmol/L (≈ 585 µg/mL)
- Solubility factor vs. 2,5 DTBHQ ([2]; 1M ZnSO4, pH 4-5, ref [1]): ~100

SMILES: Oc1ccc(O)cc1 [1,4-benzohydroquinone]
- solubility in water compared with 1,4-benzoquinone ([1]; water, background statement): six times more soluble

SMILES: O=C1C(Cl)=C(Cl)C(=O)C(Cl)=C1Cl [p-TCBQ]
- Solubility oxidized state ([3]; pH 7): Slightly soluble

SMILES: NC1=C(N)C(=O)C(N)=C(N)C1=O [TABQ]
- Solubility oxidized state ([1]; 1M ZnSO4, pH 4-5, ref [1]): 1.7 mmol/L (≈ 286 µg/mL)
- Solubility factor vs. 2,5 DTBHQ ([2]; 1M ZnSO4, pH 4-5, ref [1]): ~100

SMILES: O=C1C(=O)C(Cl)=C(Cl)C(Cl)=C1Cl [o-TCBQ]
- Solubility oxidized state ([1]; 1M ZnSO4, pH 4-5, ref [1]): 2.3 mmol/L (≈ 566 µg/mL)
- Solubility factor vs. 2,5 DTBHQ ([2]; 1M ZnSO4, pH 4-5, ref [1]): ~100

SMILES: CC(C)(C)C1=CC(=O)C(C(C)(C)C)=CC1=O [compound 1]
- solubility thermodynamic at 1 week [4]: 5.7 µg/mL (≈ 25.9 µM)
- Solubility oxidized state [3, 5]: 26 µM (≈ 5.73 µg/mL)
- Solubility reduced state [3, 5]: 204 µM (≈ 44.9 µg/mL)
- saturation limit in comparison with compound 2 (2,5 DTBHQ) ([3]; acetate electrolytes): nearly ten times lower
- saturation limit ([3]; acetic acid/potassium acetate pH 4.8, acetic acid/zinc acetate pH 4.5, zinc acetate 1.25 M pH 4.2): 26.16 µmol/L
